# According to ChEMBL document CHEMBL4619763 (J Nat Prod, 2020):
# Activity calls are given as the source filed them. The calls are words filed in the database; no cut-off is given here.
# Key:
# [1] = test system: Rattus norvegicus; test: Diuretic activity in normotensive Wistar rat assessed as urinary sodium excretion at 0.1 mg/kg, po administered via gavage after 8 hrs in presence of atropine (reference value: 61.82 to 80.81 mmol/L); type: functional
# [2] = test system: Rattus norvegicus; test: Diuretic activity in normotensive Wistar rat assessed as urine pH at 0.1 mg/kg, po administered via gavage after 8 hrs in presence of atropine (reference value: 6.14 to 6.21); type: functional
# [3] = test system: Rattus norvegicus; test: Diuretic activity in normotensive Wistar rat assessed as urinary chloride excretion at 0.1 mg/kg, po administered via gavage after 8 hrs in presence of atropine (reference value: 135.10 to 143.70 mmol/L); type: functional
# [4] = test system: Rattus norvegicus; test: Diuretic activity in normotensive Wistar rat assessed as urine conductivity at 0.01 mg/kg, ip after 8 hrs (reference value: 24.87 +/- 0.54 mS/cm); type: functional
# [5] = Toxicity in normotensive Wistar rat assessed as changes in urea level in urine at 0.1 mg/kg, po administered for 7 days; type: organism-based; conditions: in vivo, 168 h
# [6] = test system: Rattus norvegicus; test: Diuretic activity in normotensive Wistar rat assessed as urinary chloride excretion at 0.1 mg/kg, po administered via gavage after 8 hrs in presence of furosemide (reference value: 135.10 to 143.70 mmol/L); type: functional
# [7] = test system: Rattus norvegicus; test: Diuretic activity in normotensive Wistar rat assessed as urinary calcium excretion at 0.1 mg/kg, po administered via gavage after 8 hrs in presence of amiloride (reference value: 5.93 to 6.87 mg/dl); type: functional
# [8] = test system: Rattus norvegicus; test: Diuretic activity in normotensive Wistar rat assessed as urine conductivity at 0.1 mg/kg, po administered via gavage after 8 hrs in presence of indomethacin (reference value: 19.54 +/- 0.98 mS/cm); type: functional
# [9] = test system: Rattus norvegicus; test: Diuretic activity in normotensive Wistar rat assessed as urinary potassium excretion at 0.1 mg/kg, po administered via gavage after 8 hrs in presence of amiloride (reference value: 22.39 to 24.21 mmol/L); type: ADME, organism-based; conditions: in vivo
# [10] = test system: Rattus norvegicus; test: Diuretic activity in normotensive Wistar rat assessed as increase in urine volume at 0.1 mg/kg, po administered via gavage for 7 days; type: functional, organism-based
# [11] = Toxicity in spontaneous hypertensive Wistar rat assessed as changes in urinary creatinine at 0.1 mg/kg, po administered for 7 days; type: organism-based; conditions: in vivo, 168 h
# [12] = test system: Rattus norvegicus; test: Diuretic activity in normotensive Wistar rat assessed as urinary sodium excretion at 0.1 mg/kg, po administered via gavage after 8 hrs in presence of hydrochlorothiazide (reference value: 61.82 to 80.81 mmol/L); type: functional
# [13] = Toxicity in spontaneous hypertensive Wistar rat assessed as changes in plasma nitrite acid level at 0.1 mg/kg, po administered for 7 days; type: organism-based; conditions: in vivo, 168 h
# [14] = test system: Rattus norvegicus; test: In vivo antioxidant activity in Wistar rat model of hypertension-induced oxidative stress assessed as reduction in reactive oxygen species generation in renal tissue at 0.1 mg/kg, po administered via gavage for 7 days by DCFH-DA probe based fluorimetric assay; type: functional, organism-based
# [15] = test system: Rattus norvegicus; test: Diuretic activity in normotensive Wistar rat assessed as urinary sodium excretion at 0.01 mg/kg, ip after 8 hrs (reference value: 81.56 +/- 13.10 mmol/L); type: functional
# [16] = Toxicity in normotensive Wistar rat assessed as changes in plasma chloride level at 0.1 mg/kg, po administered for 7 days; type: organism-based; conditions: in vivo, 168 h
# [17] = test system: Rattus norvegicus; test: Diuretic activity in normotensive Wistar rat assessed as decrease in urinary calcium excretion at 0.1 mg/kg, po administered via gavage for 7 days; type: functional, organism-based
# [18] = Anti-urolithic activity in synthetic urine assessed as decrease in absorption at 0.1 mg/mL relative to control; type: functional; design: scale not given: the % may be the effect or the level left
# [19] = Toxicity in normotensive Wistar rat assessed as changes in plasma nitrite acid level at 0.1 mg/kg, po administered for 7 days; type: organism-based; conditions: in vivo, 168 h
# [20] = test system: Rattus norvegicus; test: Diuretic activity in normotensive Wistar rat assessed as urine pH at 0.01 mg/kg, po administered via gavage after 8 hrs (reference value: 6.14 to 6.21); type: functional
# [21] = test system: Rattus norvegicus; test: Diuretic activity in normotensive Wistar rat assessed as urinary potassium excretion at 0.1 mg/kg, po administered via gavage after 8 hrs in presence of atropine (reference value: 22.39 to 24.21 mmol/L); type: ADME, organism-based; conditions: in vivo
# [22] = test system: Rattus norvegicus; test: Diuretic activity in normotensive Wistar rat assessed as urine pH at 0.1 mg/kg, po administered via gavage after 8 hrs in presence of indomethacin (reference value: 6.14 to 6.21); type: functional
# [23] = test system: Rattus norvegicus; test: Diuretic activity in normotensive Wistar rat assessed as urinary sodium excretion at 0.1 mg/kg, po administered via gavage after 8 hrs in presence of L-NAME (reference value: 61.82 to 80.81 mmol/L); type: functional
# [24] = test system: Rattus norvegicus; test: Diuretic activity in normotensive Wistar rat assessed as increase in urinary sodium excretion at 0.1 mg/kg, po administered via gavage for 7 days; type: functional, organism-based
# [25] = test system: Rattus norvegicus; test: Diuretic activity in normotensive Wistar rat assessed as urinary calcium excretion at 0.1 mg/kg, […] administered via gavage after 8 hrs (reference value: 5.28 +/- 0.09 mg/dl); type: functional
# [26] = test system: Rattus norvegicus; test: Diuretic activity in normotensive Wistar rat assessed as urinary chloride excretion at 1 mg/kg, po administered via gavage after 8 hrs (reference value: 135.10 to 143.70 mmol/L); type: functional
# [27] = test system: Rattus norvegicus; test: Diuretic activity in normotensive Wistar rat assessed as urinary potassium excretion at 0.1 mg/kg, po administered via gavage after 8 hrs in presence of hydrochlorothiazide (reference value: 22.39 to 24.21 mmol/L); type: ADME, organism-based; conditions: in vivo
# [28] = test system: Rattus norvegicus; test: Diuretic activity in normotensive Wistar rat assessed as urinary calcium excretion at 0.1 mg/kg, po administered via gavage after 8 hrs in presence of furosemide (reference value: 5.93 to 6.87 mg/dl); type: functional
# [29] = test system: Rattus norvegicus; test: In vivo antioxidant activity in Wistar rat model of hypertension-induced oxidative stress assessed as reduction in nitrite level in renal tissue at 0.1 mg/kg, po administered via gavage for 7 days by Griess reagent based assay; type: functional, organism-based
# [30] = Toxicity in spontaneous hypertensive Wistar rat assessed as changes in plasma ALT level at 0.1 mg/kg, po administered for 7 days; type: organism-based; conditions: in vivo, 168 h
# [31] = Toxicity in normotensive Wistar rat assessed as changes in urinary creatinine at 0.1 mg/kg, po administered for 7 days; type: organism-based; conditions: in vivo, 168 h
# [32] = test system: Rattus norvegicus; test: Diuretic activity in normotensive Wistar rat assessed as urine pH at 0.1 mg/kg, po administered via gavage after 8 hrs in presence of amiloride (reference value: 6.14 to 6.21); type: functional
# [33] = test system: Rattus norvegicus; test: Diuretic activity in normotensive Wistar rat assessed as urinary calcium excretion at 0.1 mg/kg, po administered via gavage after 8 hrs (reference value: 5.93 to 6.87 mg/dl); type: functional
# [34] = Toxicity in normotensive Wistar rat assessed as changes in plasma sodium level at 0.1 mg/kg, po administered for 7 days; type: organism-based; conditions: in vivo, 168 h
# [35] = test system: Rattus norvegicus; test: Diuretic activity in normotensive Wistar rat assessed as urinary sodium excretion at 1 mg/kg, ip after 8 hrs (reference value: 81.56 +/- 13.10 mmol/L); type: functional
# [36] = test system: Rattus norvegicus; test: Diuretic activity in normotensive Wistar rat assessed as urinary chloride excretion at 1 mg/kg, ip […] after 8 hrs (reference value: 103.30 +/- 10.25 mmol/L); type: functional
smiles,measurement,setting,value
C[C@@H]1O[C@@H](Oc2c(-c3ccc(O)cc3)oc3cc(O)cc(O)c3c2=O)[C@H](O)[C@H](O)[C@H]1O [AFZELIN],Activity,[1],57.23 mmol/L
same,pH,[2],6.14
same,Activity,[3],231.8 mmol/L
same,Activity,[4],26.4 mS/cm
same,Activity,[5],Non-Toxic
same,Activity,[6],154.7 mmol/L
same,Activity,[7],4.74 mg/dL
same,Activity,[8],19.34 mS/cm
same,Activity,[9],1.95 mmol/L
same,Activity,[10],Active
same,Activity,[11],Non-Toxic
same,Activity,[12],113.3 mmol/L
same,Activity,[13],Non-Toxic
same,Activity,[14],Active
same,Activity,[15],51.84 mmol/L
same,Activity,[16],Non-Toxic
same,Activity,[17],Active
same,Activity,[18],27.81%
same,Activity,[19],Non-Toxic
same,pH,[20],5.73
same,Activity,[21],16.83 mmol/L
same,pH,[22],5.94
same,Activity,[23],75.14 mmol/L
same,Activity,[24],Active
same,Activity,[25],5.51 mg/dL
same,Activity,[26],165.2 mmol/L
same,Activity,[27],33.28 mmol/L
same,Activity,[28],5.36 mg/dL
same,Activity,[29],Active
same,Activity,[30],Non-Toxic
same,Activity,[31],Non-Toxic
same,pH,[32],6.26
same,Activity,[33],5.22 to 6.33 mg/dL
same,Activity,[34],Non-Toxic
same,Activity,[35],62.46 mmol/L
same,Activity,[36],107.4 mmol/L
